In PMC7068650, “In silico screening of GMQ-like compounds reveals guanabenz and sephin1 as new allosteric modulators of acid-sensing ion channel 3” (Biochemical Pharmacology, 2020):
Blank lines part the entries; values can stand above or below the molecule they belong to.

Legend:
Type in all cases: cell-based
[1] = target: T1, acid-sensing ion channel 3 (rASIC3) (Rattus norvegicus, UniProt O35240); experiment: whole-cell patch clamp, rASIC3-transfected CHO cells, potentiation of the pH […] response at […] (no effect on pH […] response)
T1 construct: gene Asic3
T1 sequence (O35240 1-533): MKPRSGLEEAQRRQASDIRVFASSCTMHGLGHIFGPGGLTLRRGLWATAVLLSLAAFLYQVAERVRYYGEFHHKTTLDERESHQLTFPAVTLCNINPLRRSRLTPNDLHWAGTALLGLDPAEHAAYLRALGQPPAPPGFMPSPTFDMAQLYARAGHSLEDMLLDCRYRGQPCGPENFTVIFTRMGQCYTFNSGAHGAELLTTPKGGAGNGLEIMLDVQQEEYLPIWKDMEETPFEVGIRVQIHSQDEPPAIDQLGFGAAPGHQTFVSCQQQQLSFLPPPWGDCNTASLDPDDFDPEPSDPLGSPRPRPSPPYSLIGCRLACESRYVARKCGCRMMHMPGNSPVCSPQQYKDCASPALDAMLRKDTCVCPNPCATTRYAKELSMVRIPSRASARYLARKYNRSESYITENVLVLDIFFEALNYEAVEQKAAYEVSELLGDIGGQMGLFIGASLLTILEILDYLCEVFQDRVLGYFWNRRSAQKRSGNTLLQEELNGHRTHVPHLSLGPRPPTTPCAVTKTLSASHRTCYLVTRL

[2] = target: T1, acid-sensing ion channel 3 (rASIC3); experiment: whole-cell patch clamp, rASIC3-transfected CHO cells, activation at pH […] (reference agonist; estimated EC50)
[3] = target: T1, acid-sensing ion channel 3 (rASIC3); experiment: whole-cell patch clamp, rASIC3-transfected CHO cells, activation at pH […] (estimated EC50; also potentiates pH […] and pH […] responses)

Structure (SMILES): Clc1ccc2nsnc2c1NC1=NCCN1 [TIZ, tizanidine]
whole-cell patch clamp, rASIC3-transfected CHO cells, potentiation of the pH 7 r [1]: TIZ and GBZ produced a similar effect, inducing an increase in the peak and sustained currents

EC50 [2]: ~680 µM
Structure (SMILES): Cc1nc(NC(=N)N)nc2ccccc12 [GMQ, 2-guanidine-4-methylquinazoline]

EC50 [3]: ~67.5 µM
Structure (SMILES): N=C(N)N/N=C/c1c(Cl)cccc1Cl [GBZ, guanabenz]
